According to article PMC3151326 (2011):

Target: PDE5 (Homo sapiens, UniProt O76074)
Experiment: cGMP PDE activity
Format: biochemical

CSc1ccc(/C=C2/C(C)=C(CC(=O)O)c3cc(F)ccc32)cc1 [SS, sulindac sulfide]
IC50: ~100 µM
